For 37 molecules, GI50 and TGI results are on record in PubChem BioAssay (NCI).

Molecules are shown by their SMILES.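 How tested: cells in 96-well plates exposed to compound for 48 hours at five concentrations. GI50 = concentration required for 50% inhibition of growth. The concentration for full growth arrest is given as TGI.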

The test system of this test is MDA-MB-468 breast. In words: NCI tumour cell line growth inhibition, 48 h.
On to `c1cc(C2CCCCC2)ccc1-c1cnc2nonc2n1`, for which the GI50 was 0.316 µM and the TGI turned out to be 1.36 µM.

On to `COc1cccc(N2CCN(c3ncnc4cc[nH]c34)CC2)c1`, for which the GI50 was 0.215 µM and the TGI worked out at 10.2 µM.

As to `Cn1cc(C2=C(c3cc[nH]c3)C(=O)NC2=O)c2ccccc21`, the GI50 is 11.9 µM and the TGI was greater than 25 µM.

Take `OC(CN1CCCC2CCCCC21)c1cc2ccccc2c2ccccc12` (centres undefined): the GI50 is 1.73 µM and the TGI stood at 3.62 µM.

Take `CCN(CC)S(=O)(=O)c1cccc(-c2ccc3c(NC(=O)C4CC4)n[nH]c3c2)c1`: the GI50 is 1.22 µM and the TGI was greater than 6.25 µM.

Turning to `O=C(NCc1ccco1)C1CCN(S(=O)(=O)c2ccc(Cl)cc2)CC1`, the GI50 is 46 µM and the TGI was greater than 100 µM.

With `CCn1cc(C(=O)N/N=C/c2cccs2)c(=O)c2cc(F)c(N3CCNC(C)C3)c(F)c21` (centres undefined), the GI50 is 1.66 µM and the TGI came out at 3.27 µM.

For the molecule `Oc1ccc(Cl)cc1Sc1cc(Cl)ccc1O`, the GI50 is 3.13 µM and the TGI was found to be 9.12 µM.

As to `CN(C)c1cc2c(Nc3ccc4c(cnn4Cc4ccccc4)c3)ncnc2cn1`, the GI50 was 0.136 µM and the TGI was 1.16 µM.

For the molecule `COc1cc2c3c(n([C@@H]4CCOC4)c(=O)c2cc1OC)-c1cc2c(cc1C3=O)OCO2`, the GI50 is less than 0.01 µM and the TGI came to 0.0949 µM.

As to `CC(=O)O[C@@H]1C2=C(C)C3(CC3)[C@@](C)(O)C(=O)C2=C[C@@]1(C)CO`, the GI50 was 0.209 µM and the TGI was 0.591 µM.

Consider `Cc1nc2sc(C(=O)Nc3ccccc3)c(N)c2cc1C(O)c1ccccc1` (centres undefined), for which the GI50 is 0.233 µM and the TGI is greater than 65.3 µM.

Turning to `COc1cc2c(NC3CCN(C(C)C)CC3)nc(C3CCCCC3)nc2cc1OCCCN1CCCC1`, the GI50 is 1.42 µM and the TGI was 3.17 µM.

`Cc1c(Cl)cccc1NC(=O)c1sc2nc3c(cc2c1N)C(=O)CCC3`: the GI50 is 0.0453 µM and the TGI stood at 71.7 µM.

Take `C=C1C(=O)O[C@H]2[C@H]1CC/C(COC(=O)CCCCCCCC(=O)OC/C1=C/CC[C@@]3(C)O[C@H]3[C@H]3OC(=O)C(=C)[C@@H]3CC1)=C\CC[C@@]1(C)O[C@@H]21`: the GI50 is 2.37 µM and the TGI was 6.46 µM.

Take `Cc1ccc2c(n1)C(=O)C(Cl)=C(Nc1cc(C(F)(F)F)cc(C(F)(F)F)c1)C2=O`: the GI50 was 2.01 µM and the TGI worked out at 4.57 µM.

Consider `[Cl][Hg][c]1ccc2ccccc2c1`, for which the GI50 is 1.46 µM and the TGI worked out at 2.84 µM.

Take `CC(C)c1[nH]nc2c(NCc3ccc(-c4ccccn4)cc3)nc(SCCN(C)C)nc12`: the GI50 is less than 0.0129 µM and the TGI was less than 0.0238 µM.

Consider `C[C@H]1COCCN1c1nc(-c2cnc(N)cc2C(F)F)nc(N2CCOCC2)n1`, for which the GI50 is 0.108 µM and the TGI turned out to be 0.732 µM.

In the case of `Cc1nc2c(O)c3c(c(O)c2nc1C)C1C=CC3CC1`, the GI50 was 0.559 µM and the TGI is 1.97 µM.

As for `COC(=O)c1c2c(c(C)[n+]([O-])c1C)C(=O)C(NCc1ccc(F)cc1)=CC2=O`, the GI50 was 0.598 µM and the TGI was 2.15 µM.

For `O=C(N/N=C/c1cc(Cl)ccc1O)c1ccccc1Nc1ccnc(C(F)(F)F)c1`, the GI50 was 0.265 µM and the TGI turned out to be 2.05 µM.

Take `Cc1ccc(N=Nc2c(O)ccc3n[nH]nc23)cc1`: the GI50 is 4.14 µM and the TGI came out at 49 µM.

Regarding `C(=C\c1ccncc1)/c1ccncc1`, the GI50 is greater than 100 µM and the TGI is greater than 100 µM.

On to `CC(C)c1[nH]nc2c(NCc3ccc(-c4ccccn4)cc3)nc(SCCN)nc12`, for which the GI50 is 0.00335 µM and the TGI is 0.0127 µM.

`CSc1nnc(-c2cc3c([nH]c4ccccc43)c(-c3cccc(O)c3)n2)n1-c1ccc(C)cc1`: the GI50 was 3.7 µM and the TGI was 33.7 µM.

On to `CN(C)CC1C(=O)O[C@H]2[C@H]1CC/C(COC(=O)NCc1ccc(Cn3c(=O)sn(CCCI)c3=O)cc1)=C\CC[C@@]1(C)O[C@@H]21` (some centres undefined), for which the GI50 was 0.7 µM and the TGI worked out at 1.6 µM.

In the case of `COc1c(B(O)O)cccc1-c1nc2ccc3[nH]ncc3c2c2c1CCCC2`, the GI50 was 1.69 µM and the TGI came to 4.94 µM.

For `COCCNCc1ccc(-c2cc3nccc(Oc4ccc(NC(=O)C5(C(=O)Nc6ccc(F)cc6)CC5)cc4F)c3s2)nc1`, the GI50 was 1.74 µM and the TGI came out at 3.41 µM.

For `O=C(N=Nc1c(Cl)c(O)c2ccccc2c1O)C(=O)Nc1cccc(C(F)(F)F)c1`, the GI50 is 4.16 µM and the TGI turned out to be 15.3 µM.

On to `O=C(NNc1nc2cc(F)cc(F)c2n2cccc12)c1cnccn1`, for which the GI50 was 0.331 µM and the TGI was determined as 2.89 µM.

For the molecule `COc1ccc2c(CCCc3ccc(Cl)cc3Cl)c3[n+](cc2c1OC)CCc1cc2c(cc1-3)OCO2`, the GI50 was 0.195 µM and the TGI turned out to be 0.894 µM.

In the case of `CC(C)(O)CCc1cccc(C(=O)c2cnn(-c3ccc(F)cc3)c2N)c1`, the GI50 is 13.2 µM and the TGI is greater than 25 µM.

In the case of `CC1=CC(C)(C)Nc2ccc(Cc3ccc4c(c3)C(C)=CC(C)(C)N4)cc21`, the GI50 was 3.81 µM and the TGI came to 16.2 µM.

Consider `COc1ccc(/C=C2\COc3ccc(O)c(O)c3C2=O)cc1OC`, for which the GI50 was 1.58 µM and the TGI came out at 4.88 µM.

As for `Cc1cc(Cl)nc(N(CCCNc2ccnc3cc(Cl)ccc23)Cc2cccs2)n1`, the GI50 was 1.04 µM and the TGI was 4.25 µM.

Regarding `CC1=NN(c2cccc(Cl)c2)C(=O)/C1=C\C=C\c1ccccc1`, the GI50 is 1.66 µM and the TGI stood at 6.14 µM.
